In publication PMC4669708 (Cell Death & Disease, 2015):

Tests used:
3T3-SA or L929 cells = assay: Drug toxicity dose-response, Supplementary Figure 3; type: cell-based, murine; conditions: Mus musculus, read-out: IC50 (printed in Supplementary Figure 3)
Protocol: Cells were seeded in 12-, 24- or 96-well plates at proper cell density. For necroptosis or apoptosis assays, cells were incubated with the indicated compound combinations at concentrations stated for 14–24 h. Smac mimetic and z-VAD-FMK were added 30–60 min before treatment with TNF-α, FasL or TRAIL. Cell viability was determined using CellTiter Glo Luminescent Cell Viability Assay (Promega, Fitchburg, WI, USA) according to the manufacturer's instructions. Luminescence was recorded with a SpectraMax M5Multimode plate reader (Molecular Devices, Sunnyvale, CA, USA). For flow cytometry-based determination of viability, cells were harvested, collected by centrifugation, washed once and resuspended in staining buffer (1 × PBS, 10% FBS). Cells were incubated with 0.5 μg/ml PI for 10 min at room temperature (RT) in the dark. Flow cytometric analyses were performed on an LSR Fortessa (BD Biosciences) and analyzed with FlowJo software version 7.6.3 (Tree Star Inc, Ashland, OR, USA). Cell size was evaluated by forward scatter. PI-negative normal-sized cells were considered living and data were normalized to values of untreated controls. For detection of apoptosis, cells were resuspended in Annexin V Binding Buffer (BioLegend, San Diego, CA, USA) and stained with 0.5 μg/ml PI and Alexa Fluor 647 Annexin V (BioLegend) according to manufacturer's instructions.

recombinant RIPK1 = molecular target: T1, recombinant RIPK1 (Homo sapiens, UniProt Q13546); assay: Recombinant kinase assay; type: biochemical; conditions: 50 μM ATP; Supplementary Figure 4b
T1 construct: purchased Signalchem R07-10G
Protocol: Recombinant RIPK1 or RIPK3 protein was incubated with the substrate MBP in kinase assay buffer (40 mM Tris-HCl pH 7.5, 10 mM MgCl2 and 1 mM DTT) in presence of 50 μM ATP, 5 μCi [γ-32 P]ATP and the indicated inhibitors in a total volume of 20 μl. […] The terminated reactions were spotted onto a SAM2 Biotin Capture membrane (Promega) and further processed according to the manufacturer's instructions. […] Data were normalized to a DMSO-treated control sample. For autoradiography, the reactions were stopped by addition of 5 μl 4x Laemmli buffer and incubated for 5 min at 95 °C.

[1] = Chemical proteomics, c-ponatinib drug pull-down, LCMS-MS; type: binding, human; conditions: c-ponatinib matrix, competition with free ponatinib; cells 2 h TNF-α
Protocol: Drug-affinity matrices were prepared as described previously.[51] In brief, 25 nmol of c-ponatinib were immobilized on 50 μl NHS-activated Sepharose 4 Fast Flow beads (GE Healthcare Bio-Sciences AB, Uppsala, Sweden). 10 mg whole cell lysate was used as protein input per replicate. Affinity chromatography and elution were performed in duplicate. After elution, the enriched proteins were reduced with dithiothreitol (DTT) and cysteine residues were alkylated by incubation with iodoacetamide. The samples were digested with modified porcine trypsin (Promega). Five percent of the digested eluates were purified and concentrated by C18 reversed-phase material. Subsequently, samples were analyzed in duplicates by gel-free one-dimensional LCMS.
Precursor and MS/MS peaks were extracted from the RAW files and saved in the MGF format using msconvert tool (ProteoWizard Library v2.1.2708, www.proteowizard.sourceforge.net) for subsequent protein identification. […] The initial peptide identifications were used to deduce independent linear transformations for precursor and fragment masses that would minimize the mean square deviation of measured masses from theoretical. […] A false discovery rate of <1% for protein identifications and <0.1% for peptides (including the ones exported with lower scores) was determined by applying the same procedure against a database of reversed protein sequences. […]

T1 sequence (Q13546 1-327 limits assumed): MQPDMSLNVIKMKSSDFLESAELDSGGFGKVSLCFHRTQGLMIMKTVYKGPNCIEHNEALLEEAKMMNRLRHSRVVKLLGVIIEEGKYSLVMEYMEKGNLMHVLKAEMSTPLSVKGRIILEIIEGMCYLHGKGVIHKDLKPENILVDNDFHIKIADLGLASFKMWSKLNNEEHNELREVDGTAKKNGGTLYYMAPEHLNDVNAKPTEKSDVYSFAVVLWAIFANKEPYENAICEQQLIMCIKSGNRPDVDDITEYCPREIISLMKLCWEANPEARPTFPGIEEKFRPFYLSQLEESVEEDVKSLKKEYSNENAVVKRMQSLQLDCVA

SMILES: Cc1ccc(C(=O)Nc2ccc(CN3CCN(C)CC3)c(C(F)(F)F)c2)cc1C#Cc1cnc2cccnn12 [ponatinib, Ponatinib]
- IC50 (3T3-SA or L929 cells): 1100 nM
- RIPK1 kinase activity (MBP phosphorylation) (recombinant RIPK1): strongly blocked phosphorylation
- kinases identified as specific binders (number) [1]: 38
- non-kinase proteins identified as specific binders (number) [1]: 22
